# Patent US10517889B2, “Modulators of SMAD7 expression” (Ionis Pharmaceuticals, Inc., priority 2017, dated 2019)
# Strand notation (5' to 3'): a small letter for the sugar, then the base; units joined by * are phosphorothioate-linked, units joined directly phosphodiester-linked; [ ] holds rarer units or linkages, { } end groups; capitals alone tell only the bases. k = constrained ethyl (cEt); [5mC] = 5-methylcytosine; d = 2'-deoxy (DNA)
# Tested on: human SMAD7 mRNA
# Assay: Antisense inhibition of human SMAD7 mRNA expression in Hep3B cells by 3-10-3 cEt gapmers, 10,000 nM, electroporation (Example 2)
# Format: cell-based
# Details: SMAD7 mRNA, Hep3B cells, electroporation with 10,000 nM antisense oligonucleotide, approximately 24 hours, primer probe set RTS5062, relative to untreated control cells
# Method in brief: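 Percent inhibition of SMAD7 mRNA, relative to untreated cells, after ~24 h exposure of electroporated Hep3B cells to 10,000 nM cEt gapmer; levels by qRT-PCR, corrected for total RNA.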
substance,measurement,value
829944 (k[5mC]*k[5mC]*kA*dG*dT*dT*dA*dA*dT*d[5mC]*dA*dT*dT*kA*k[5mC]*kT; antisense) [compound 829944],% Inhibition,23%
829945 (kG*k[5mC]*k[5mC]*dA*dG*dT*dT*dA*dA*dT*d[5mC]*dA*dT*kT*kA*k[5mC]; antisense) [compound 829945],% Inhibition,31%
829946 (kG*k[5mC]*kA*dG*d[5mC]*d[5mC]*dA*dG*dT*dT*dA*dA*dT*k[5mC]*kA*kT; antisense) [compound 829946],% Inhibition,44%
829947 (kG*kG*kG*d[5mC]*dA*dG*d[5mC]*d[5mC]*dA*dG*dT*dT*dA*kA*kT*k[5mC]; antisense) [compound 829947],% Inhibition,31%
829948 (k[5mC]*kG*kG*dG*d[5mC]*dA*dG*d[5mC]*d[5mC]*dA*dG*dT*dT*kA*kA*kT; antisense) [compound 829948],% Inhibition,43%
829949 (k[5mC]*k[5mC]*kG*dG*dG*d[5mC]*dA*dG*d[5mC]*d[5mC]*dA*dG*dT*kT*kA*kA; antisense) [compound 829949],% Inhibition,19%
829950 (kT*k[5mC]*k[5mC]*dG*dG*dG*d[5mC]*dA*dG*d[5mC]*d[5mC]*dA*dG*kT*kT*kA; antisense) [compound 829950],% Inhibition,43%
829951 (kG*k[5mC]*kT*d[5mC]*d[5mC]*dG*dG*dG*d[5mC]*dA*dG*d[5mC]*d[5mC]*kA*kG*kT; antisense) [compound 829951],% Inhibition,10%
829952 (kA*k[5mC]*k[5mC]*d[5mC]*dG*dT*d[5mC]*dT*dG*dG*dG*d[5mC]*dT*k[5mC]*k[5mC]*kG; antisense) [compound 829952],% Inhibition,2%
829953 (kG*kT*k[5mC]*dA*d[5mC]*d[5mC]*d[5mC]*dG*dT*d[5mC]*dT*dG*dG*kG*k[5mC]*kT; antisense) [compound 829953],% Inhibition,34%
829954 (kT*kT*kG*dT*d[5mC]*dA*d[5mC]*d[5mC]*d[5mC]*dG*dT*d[5mC]*dT*kG*kG*kG; antisense) [compound 829954],% Inhibition,53%
829955 (k[5mC]*kT*kT*dG*dT*d[5mC]*dA*d[5mC]*d[5mC]*d[5mC]*dG*dT*d[5mC]*kT*kG*kG; antisense) [compound 829955],% Inhibition,52%
829957 (k[5mC]*kA*k[5mC]*d[5mC]*dT*dT*dG*dT*d[5mC]*dA*d[5mC]*d[5mC]*d[5mC]*kG*kT*k[5mC]; antisense) [compound 829957],% Inhibition,41%
829958 (kG*k[5mC]*kA*d[5mC]*d[5mC]*dT*dT*dG*dT*d[5mC]*dA*d[5mC]*d[5mC]*k[5mC]*kG*kT; antisense) [compound 829958],% Inhibition,51%
829959 (kT*kT*kA*dT*dT*dA*dA*dT*dG*dG*dT*d[5mC]*dT*kG*k[5mC]*kT; antisense) [compound 829959],% Inhibition,12%
829960 (kA*kT*kT*dA*dT*dT*dA*dA*dT*dG*dG*dT*d[5mC]*kT*kG*k[5mC]; antisense) [compound 829960],% Inhibition,17%
829961 (kT*kG*kA*dT*dT*dA*dT*dT*dA*dA*dT*dG*dG*kT*k[5mC]*kT; antisense) [compound 829961],% Inhibition,14%
829962 (k[5mC]*kT*kG*dA*dT*dT*dA*dT*dT*dA*dA*dT*dG*kG*kT*k[5mC]; antisense) [compound 829962],% Inhibition,19%
829963 (k[5mC]*k[5mC]*kT*dA*dG*dT*dT*d[5mC]*dG*d[5mC]*dA*dG*dA*kG*kT*k[5mC]; antisense) [compound 829963],% Inhibition,46%
829964 (k[5mC]*kA*k[5mC]*d[5mC]*dT*dA*dG*dT*dT*d[5mC]*dG*d[5mC]*dA*kG*kA*kG; antisense) [compound 829964],% Inhibition,3%
829965 (k[5mC]*kT*k[5mC]*dA*d[5mC]*d[5mC]*dT*dA*dG*dT*dT*d[5mC]*dG*k[5mC]*kA*kG; antisense) [compound 829965],% Inhibition,0%
829966 (kT*kT*k[5mC]*d[5mC]*d[5mC]*dA*dG*dG*dA*dG*dG*dG*dT*kA*kT*kG; antisense) [compound 829966],% Inhibition,0%
829967 (k[5mC]*k[5mC]*k[5mC]*d[5mC]*d[5mC]*dA*dG*dG*dG*dA*dA*dT*dG*k[5mC]*k[5mC]*k[5mC]; antisense) [compound 829967],% Inhibition,0%
829968 (kA*kA*k[5mC]*d[5mC]*d[5mC]*d[5mC]*d[5mC]*dA*dG*dG*dG*dA*dA*kT*kG*k[5mC]; antisense) [compound 829968],% Inhibition,30%
829969 (kG*kA*kA*d[5mC]*d[5mC]*d[5mC]*d[5mC]*d[5mC]*dA*dG*dG*dG*dA*kA*kT*kG; antisense) [compound 829969],% Inhibition,17%
829970 (kT*kG*kG*dA*dA*dG*dG*dG*dA*dA*d[5mC]*d[5mC]*d[5mC]*k[5mC]*k[5mC]*kA; antisense) [compound 829970],% Inhibition,0%
829971 (kG*k[5mC]*k[5mC]*dA*d[5mC]*dA*d[5mC]*dA*d[5mC]*d[5mC]*dT*d[5mC]*dA*kA*k[5mC]*kG; antisense) [compound 829971],% Inhibition,20%
829972 (k[5mC]*kT*k[5mC]*dG*dG*d[5mC]*d[5mC]*dA*d[5mC]*dA*d[5mC]*dA*d[5mC]*k[5mC]*kT*k[5mC]; antisense) [compound 829972],% Inhibition,22%
829973 (kA*kA*kG*dA*dG*dG*d[5mC]*d[5mC]*dG*d[5mC]*d[5mC]*dT*dG*kG*k[5mC]*kG; antisense) [compound 829973],% Inhibition,17%
829974 (kA*kA*kA*dA*dG*dA*dG*dG*d[5mC]*d[5mC]*dG*d[5mC]*d[5mC]*kT*kG*kG; antisense) [compound 829974],% Inhibition,27%
829975 (k[5mC]*kA*kA*dA*dA*dG*dA*dG*dG*d[5mC]*d[5mC]*dG*d[5mC]*k[5mC]*kT*kG; antisense) [compound 829975],% Inhibition,32%
829976 (kA*k[5mC]*kA*dA*dA*dA*dG*dA*dG*dG*d[5mC]*d[5mC]*dG*k[5mC]*k[5mC]*kT; antisense) [compound 829976],% Inhibition,10%
829977 (kT*kA*kG*d[5mC]*dT*dG*dT*d[5mC]*dA*dG*dA*dT*dA*kA*kA*k[5mC]; antisense) [compound 829977],% Inhibition,35%
829978 (kA*kT*kA*dT*dT*dT*dA*dG*d[5mC]*dT*dG*dT*d[5mC]*kA*kG*kA; antisense) [compound 829978],% Inhibition,50%
829979 (kT*kG*kA*dT*dA*dT*dT*dT*dA*dG*d[5mC]*dT*dG*kT*k[5mC]*kA; antisense) [compound 829979],% Inhibition,49%
829981 (kG*kT*kG*dA*dT*dT*dG*d[5mC]*d[5mC]*dT*dT*dG*dA*kT*kA*kT; antisense) [compound 829981],% Inhibition,14%
829982 (k[5mC]*kG*kG*dT*dG*dA*dT*dT*dG*d[5mC]*d[5mC]*dT*dT*kG*kA*kT; antisense) [compound 829982],% Inhibition,44%
829983 (kG*kG*k[5mC]*dG*dG*dT*dG*dA*dT*dT*dG*d[5mC]*d[5mC]*kT*kT*kG; antisense) [compound 829983],% Inhibition,43%
829984 (kA*kG*kG*d[5mC]*dG*dG*dT*dG*dA*dT*dT*dG*d[5mC]*k[5mC]*kT*kT; antisense) [compound 829984],% Inhibition,0%
829985 (kG*kA*kG*dG*d[5mC]*dG*dG*dT*dG*dA*dT*dT*dG*k[5mC]*k[5mC]*kT; antisense) [compound 829985],% Inhibition,16%
829986 (k[5mC]*kG*kA*dG*dG*d[5mC]*dG*dG*dT*dG*dA*dT*dT*kG*k[5mC]*k[5mC]; antisense) [compound 829986],% Inhibition,28%
829987 (k[5mC]*k[5mC]*kG*d[5mC]*dG*dA*dG*dG*d[5mC]*dG*dG*dT*dG*kA*kT*kT; antisense) [compound 829987],% Inhibition,6%
829988 (kG*k[5mC]*k[5mC]*dG*d[5mC]*dG*dA*dG*dG*d[5mC]*dG*dG*dT*kG*kA*kT; antisense) [compound 829988],% Inhibition,27%
829989 (kG*kG*k[5mC]*d[5mC]*dG*d[5mC]*dG*dA*dG*dG*d[5mC]*dG*dG*kT*kG*kA; antisense) [compound 829989],% Inhibition,2%
829990 (kG*kG*kG*d[5mC]*d[5mC]*dG*d[5mC]*dG*dA*dG*dG*d[5mC]*dG*kG*kT*kG; antisense) [compound 829990],% Inhibition,35%
829991 (kA*kG*kG*dG*d[5mC]*d[5mC]*dG*d[5mC]*dG*dA*dG*dG*d[5mC]*kG*kG*kT; antisense) [compound 829991],% Inhibition,26%
829992 (kG*k[5mC]*kA*dG*dG*dG*d[5mC]*d[5mC]*dG*d[5mC]*dG*dA*dG*kG*k[5mC]*kG; antisense) [compound 829992],% Inhibition,10%
829993 (kG*kG*k[5mC]*dA*dG*dG*dG*d[5mC]*d[5mC]*dG*d[5mC]*dG*dA*kG*kG*k[5mC]; antisense) [compound 829993],% Inhibition,26%
829996 (kT*kT*kT*dG*dT*d[5mC]*dT*dT*dA*dG*d[5mC]*dT*dG*kT*kG*kG; antisense) [compound 829996],% Inhibition,54%
829997 (kG*kT*kT*dT*dG*dT*d[5mC]*dT*dT*dA*dG*d[5mC]*dT*kG*kT*kG; antisense) [compound 829997],% Inhibition,21%
829998 (kT*kG*kT*dT*dT*dG*dT*d[5mC]*dT*dT*dA*dG*d[5mC]*kT*kG*kT; antisense) [compound 829998],% Inhibition,34%
829999 (k[5mC]*kT*kG*dT*dT*dT*dG*dT*d[5mC]*dT*dT*dA*dG*k[5mC]*kT*kG; antisense) [compound 829999],% Inhibition,46%
830000 (kA*k[5mC]*kT*dG*dT*dT*dT*dG*dT*d[5mC]*dT*dT*dA*kG*k[5mC]*kT; antisense) [compound 830000],% Inhibition,51%
830001 (kG*k[5mC]*k[5mC]*d[5mC]*dA*dA*d[5mC]*dT*dG*dT*dT*dT*dG*kT*k[5mC]*kT; antisense) [compound 830001],% Inhibition,24%
